# Measurements taken from patent publication US7884067B2, “Peptides derived from cadherin and methods of use thereof” (Mount Sinai School of Medicine of New York University, priority 2001, dated 2011).
# Assays:
# E-cadherin = E-cadherin processing in E-cadherin-transfected PS1+/+ fibroblasts (Western blot, C36); assay type: cell-based, mouse; settings: L-685,458 0.5 μM, 6 hours, compared to non-treated controls
# Procedure: Cell Cultures and transfections. Cells were grown in Dulbecco's Modified Eagle Medium (DMEM) plus 10% fetal bovine serum, penicillin and streptomycin in 5% CO2 at 37° C. Fibroblast cell lines derived either from wild-type (WT) (PS1+/+) or PS1 knock-out (PS1−/−) mice were stably transfected with human E-cadherin as described by Baki et al., (2001). A431 cells were from American Type Culture Collection. Stable transfectants of PS1 cDNA in HEK293 cells were prepared as described by Georgakopoulos et al., (1999). A431D cells stably transfected with wild-type or GGG759-761AAA mutant E-cadherin were provided by Dr. A. B. Reynolds.
# Immunoprecipitations (IPs), immunoblotting, immunofluorescence and confocal microscopy. For WB analysis of cell extracts, cells were washed with PBS and then solubilized in RIPA buffer. For IPs cells were solubilized in Hepes buffer (25 mM Hepes [pH 7.4], 150 mM NaCl, 1× Complete protease inhibitor cocktail, Roche) containing 1% digitonin (IPs with I-R222 and PI-R222 antibodies) or 1% Triton X-100 (IPs with β-catenin and desmoglein antibodies). Following centrifugation at 17,000×g for 10 min, supernatants (1 mg protein) were pre-cleared with protein A- or protein G-agarose (Pierce) for 2 hours. […] IPs were washed with Hepes buffer containing either 1% digitonin or 1% Triton X-100 and analyzed by SDS-PAGE. […]
# A431 cells = assay: Laser scanning confocal microscopy of ionomycin-induced cell-cell dissociation; assay type: cell-based, human; settings: 30 minutes pre-incubation with L-685,458, then ionomycin 45 minutes
# Procedure: Immunoprecipitations (IPs), immunoblotting, immunofluorescence and confocal microscopy. For WB analysis of cell extracts, cells were washed with PBS and then solubilized in RIPA buffer. For IPs cells were solubilized in Hepes buffer (25 mM Hepes [pH 7.4], 150 mM NaCl, 1× Complete protease inhibitor cocktail, Roche) containing 1% digitonin (IPs with I-R222 and PI-R222 antibodies) or 1% Triton X-100 (IPs with β-catenin and desmoglein antibodies). Following centrifugation at 17,000×g for 10 min, supernatants (1 mg protein) were pre-cleared with protein A- or protein G-agarose (Pierce) for 2 hours. Supernatants were then incubated with antibodies overnight at 4° C. and treated for 2 hours with protein A-agarose (polyclonal antibodies) or with protein G-agarose (monoclonal antibodies). IPs were washed with Hepes buffer containing either 1% digitonin or 1% Triton X-100 and analyzed by SDS-PAGE. Immunofluorescence and confocal microscopy was performed as described by Georgakopoulos et al., (1999). Briefly, cells were plated on 22×22 mm collagen-coated glass coverslips, fixed in cold methanol for 10 min at −20° C. Following washing in TBS (25 mM Tris-HCl [pH 7.4], 150 mM NaCl), cells were treated with 10% goat serum in SuperBlock (Pierce) for 1 hour, incubated overnight with primary antibody (1:100), washed in TBS and then were incubated with species specific Alexa Fluor™ secondary antibody conjugates (Molecular Probes). Cells were washed with TBS, mounted with Prolong antifade kit (Molecular Probes), and photographed on a Leica confocal laser scanning microscope.
# The PS1/γ-secretase role in the disassembly of CAJ was further examined using laser scanning confocal microscopy (LSCM). A431 cells were pre-incubated for 30 minutes in the absence or presence of L-685,458 and then treated for 45 minutes with ionomycin. Following the ionomycin-induced cell-cell dissociation, the distribution of PS1, E-cadherin, β-catenin and α-catenin was analyzed by LSCM using the constant detector setting. […]
# N-cadherin = assay: In vitro γ-secretase-like ε-cleavage assay, membranes of WT-PS1-transfected HEK293 cells; assay type: biochemical, human; settings: membranes from WT-PS1-transfected clone #7, presence of L-685,458, 37° C. 2 hours
# Procedure: In vitro γ-secretase-like ε-cleavage assay. Cells were washed in PBS, resuspended in 1 ml of 4° C. hypotonic buffer (10 mM MOPS, pH 7.0, 10 mM KCl) and homogenized on ice. A post-nuclear supernatant was prepared by centrifugation at 1000×g for 15 minutes at 4° C. Crude membranes were isolated from the post-nuclear supernatant by centrifugation at 16,000×g for 40 minutes at 4° C. The membranes were then resuspended in […] of assay buffer (150 mM sodium citrate, pH 6.4, 1× Complete protease inhibitor cocktail), and incubated at 37° C. for 2 hours. Samples were either analyzed directly by WB or separated into pellet (P100) and supernatant (S100) fractions by ultracentrifugation for 1 hour at 100,000×g at 4° C. The S100 and P100 fractions were then analyzed by WB.
# Membranes from PS1−/− (FIG. 7C, lane 1) or PS1+/+ (FIG. 7C, lanes 2-4) fibroblasts or from N2a cell cultures (FIG. 7C, lanes 5-6) incubated for 16 hours in the absence or presence of DMSO or L-685,458 ([…]), were incubated at 37° C. for 2 hours, separated by centrifugation in a pellet (P100, FIG. 7C, upper panels) and a soluble (S100, FIG. 7C, lower panels) fractions and then probed on WBs with C32 antibody. […]
# [1] = tested on: CRE-dependent transactivation; assay: CRE-dependent transactivation (luciferase) in L cells; assay type: cell-based; settings: L cells transfected with increasing amount of pN-Cad/CTF2, FIG. 9A
# Procedure: Transactivation assays. CRE-dependent transactivation was measured in the absence or presence of overexpression of PKA (pFC-PKA, Stratagene) by cotransfection with CRE-luciferase reporter plasmid (pCRE-Luc, Stratagene) and pSV-β-galactosidase vector (Promega) to evaluate transfection efficiency. CHOP-mediated transactivation was measured by cotransfection with the Gal4-fusion trans-activator plasmids (pFA-CHOP and pFR-Luc, Stratagene). 30 hours after transfection, luciferase and β-galactosidase activities were determined following manufacturer's instructions using a TD-20/20 luminometer (Turner Designs) and a DU-64 spectrophotometer (Beckman). Values were normalized to β-galactosidase activity and protein concentration.
# Stimulation of synaptic NMDA receptor leads to phosphorylation of transcription factor CREB that then recruits transcription co-activator CBP, a process ultimately leading to activation of CREB-mediated gene expression (Impey and Goodman (2001) Sci STKE, PE1). […] CRE-dependent transactivation was measured in the absence (−) or presence (+) of […] PKA (pFC-PKA) using CRE-luciferase reporter plasmid (pCRE-Luc) and pSV-β-galactosidase vector. CHOP-mediated transactivation was measured by […] with the Gal4-fusion trans-activator plasmids (pFA-CHOP and pFR-Luc) and pSV-β-galactosidase vector. […]
Molecule,cellular E-Cad/CTF1 (E-cadherin),loss of cell surface staining of all epitopes (A431 cells),N-Cad/CTF2 production (N-cadherin),constitutive and PKA-stimulated CRE-dependent transactivation [1]
"CC(C)C[C@H](NC(=O)[C@H](Cc1ccccc1)C[C@@H](O)[C@H](Cc1ccccc1)NC(=O)OC(C)(C)C)C(=O)N[C@@H](Cc1ccccc1)C(N)=O [L-685,458]",increased cellular E-Cad/CTF1,significantly delayed,no N-Cad/CTF2 was detected,–
"N-Cad/CTF2: chicken cytoplasmic domain of N-cadherin (N-Cad/CTF2) inserted into vector pECE, expressed in L cells (protein) KRRDKERQAKQLLIDPEDDVRDNILKYDEEGGGEEDQDYDLSQLQQPDTVEPDAIKPVGIRRLDERPIHAEPQYPVRSAAPHPGDIGDFINEGLKAADNDPTAPPYDSLLVFDYEGSGSTAGSLSSLNSSSSGGEQDYDYLNDWGPRFKKLADMYGGGDD",–,–,–,inhibits both constitutive and PKA-stimulated CRE-dependent transactivation in a dose-dependent manner
